Assay results as given in paper PMC11672637, “7-O-Carboxylic Acid-Substituted 3-O-Alkyl Difluoroquercetin; An Aztreonam-Potentiating Agent Against Carbapenemase-Producing Pseudomonas aeruginosa Through Simultaneous Inhibition of Metallo-β-Lactamase and Efflux Pump” (Antibiotics, 2024).
In brackets after ≈: the same amount, converted by molar mass. Where two headings read alike, the source gives them in different places.

What was measured:
All CPPA (n = 26) = assay: MIC distribution over clinical isolates; assay type: cell-based, P. aeruginosa; settings: Pseudomonas aeruginosa; for inhibition at 4 µg/mL: read-out: Cumulative % inhibition by ATM, 5 at 4 mg/L; for inhibition at 8 µg/mL: read-out: Cumulative % inhibition by ATM, 5 at 8 mg/L; for inhibition at 16 µg/mL: read-out: Cumulative % inhibition by ATM, 5 at 16 mg/L; for inhibition at 32 µg/mL: read-out: Cumulative % inhibition by ATM, 5 at 32 mg/L; for inhibition at 64 µg/mL: read-out: Cumulative % inhibition by ATM, 5 at 64 mg/L
PA-014, blaGES = assay: Time–kill assay; assay type: cell-based, P. aeruginosa; settings: ATM 1/2 MIC + 5 at 8 mg/L
Description: Aliquots (50 μL) were taken from the incubation mixture at regular time intervals (t = 0, 3, 6, and 24 h), serially diluted in 0.85% NaCl solution, and plated on BAP. Bacterial colonies were counted, and the data are presented as the means of at least three independent experiments.

## CC(C)(C)CCOc1c(-c2ccc(F)c(F)c2)oc2cc(OCC(=O)O)cc(O)c2c1=O [Compound 5, 2-((2-(3,4-Difluorophenyl)-3-(3,3-dimethylbutoxy)-5-hydroxy-4-oxo-4H-chromen-7-yl)oxy)acetic Acid]
All CPPA (n = 26); ATM 2 mg/L
  inhibition at 4 µg/mL: 31%
  inhibition at 8 µg/mL: 38%
  inhibition at 16 µg/mL: 50%
  inhibition at 32 µg/mL: 54%
  inhibition at 64 µg/mL: 58%
All CPPA (n = 26); ATM 4 mg/L
  inhibition at 4 µg/mL: 46%
  inhibition at 8 µg/mL: 69%
  inhibition at 16 µg/mL: 81%
  inhibition at 32 µg/mL: 88%
  inhibition at 64 µg/mL: 92%
All CPPA (n = 26); ATM 8 mg/L
  inhibition at 4 µg/mL: 81%
  inhibition at 8 µg/mL: 88%
  inhibition at 16 µg/mL: 96%
  inhibition at 32 µg/mL: 96%
  inhibition at 64 µg/mL: 96%
All CPPA (n = 26); ATM 16 mg/L
  inhibition at 4 µg/mL: 100%
  inhibition at 8 µg/mL: 100%
  inhibition at 16 µg/mL: 100%
  inhibition at 32 µg/mL: 100%
  inhibition at 64 µg/mL: 100%
All CPPA (n = 26); ATM 32 mg/L
  inhibition at 4 µg/mL: 100%
  inhibition at 8 µg/mL: 100%
  inhibition at 16 µg/mL: 100%
  inhibition at 32 µg/mL: 100%
  inhibition at 64 µg/mL: 100%
All CPPA (n = 26); ATM 64 mg/L
  inhibition at 4 µg/mL: 100%
  inhibition at 8 µg/mL: 100%
  inhibition at 16 µg/mL: 100%
  inhibition at 32 µg/mL: 100%
  inhibition at 64 µg/mL: 100%
All CPPA (n = 26); ATM 0.5 mg/L
  inhibition at 8 µg/mL: 4%
  inhibition at 16 µg/mL: 4%
  inhibition at 32 µg/mL: 4%
  inhibition at 64 µg/mL: 4%
All CPPA (n = 26); ATM 1 mg/L
  inhibition at 8 µg/mL: 19%
  inhibition at 16 µg/mL: 27%
  inhibition at 32 µg/mL: 35%
  inhibition at 64 µg/mL: 38%
All CPPA (n = 26); read-out: MIC50 of ATM, 5 at 1 mg/L
  MIC50: 16 µg/mL (≈ 35.7 µM)
All CPPA (n = 26); read-out: MIC50 of ATM, 5 at 2 mg/L
  MIC50: 16 µg/mL (≈ 35.7 µM)
All CPPA (n = 26); read-out: MIC50 of ATM, 5 at 4 mg/L
  MIC50: 8 µg/mL (≈ 17.8 µM)
All CPPA (n = 26); read-out: MIC50 of ATM, 5 at 8 mg/L
  MIC50: 4 µg/mL (≈ 8.92 µM)
All CPPA (n = 26); read-out: MIC50 of ATM, 5 at 16 mg/L
  MIC50: 4 µg/mL (≈ 8.92 µM)
All CPPA (n = 26); read-out: MIC50 of ATM, 5 at 32 mg/L
  MIC50: 2 µg/mL (≈ 4.46 µM)
All CPPA (n = 26); read-out: MIC50 of ATM, 5 at 64 mg/L
  MIC50: 2 µg/mL (≈ 4.46 µM)
All CPPA (n = 26); read-out: MIC90 of ATM, 5 at 1 mg/L
  MIC90: 32 µg/mL (≈ 71.4 µM)
All CPPA (n = 26); read-out: MIC90 of ATM, 5 at 2 mg/L
  MIC90: 32 µg/mL (≈ 71.4 µM)
All CPPA (n = 26); read-out: MIC90 of ATM, 5 at 4 mg/L
  MIC90: 16 µg/mL (≈ 35.7 µM)
All CPPA (n = 26); read-out: MIC90 of ATM, 5 at 8 mg/L
  MIC90: 16 µg/mL (≈ 35.7 µM)
All CPPA (n = 26); read-out: MIC90 of ATM, 5 at 16 mg/L
  MIC90: 8 µg/mL (≈ 17.8 µM)
All CPPA (n = 26); read-out: MIC90 of ATM, 5 at 32 mg/L
  MIC90: 8 µg/mL (≈ 17.8 µM)
All CPPA (n = 26); read-out: MIC90 of ATM, 5 at 64 mg/L
  MIC90: 8 µg/mL (≈ 17.8 µM)
PA-014, blaGES
  Diff. (ATM + 5, 24 h vs initial inoculum): 1.65 Log CFU/mL
